In assay [1] the target is T1, Muscarinic acetylcholine receptor M2 (Rattus norvegicus, UniProt P10980).
T1 sequence (P10980 whole entry): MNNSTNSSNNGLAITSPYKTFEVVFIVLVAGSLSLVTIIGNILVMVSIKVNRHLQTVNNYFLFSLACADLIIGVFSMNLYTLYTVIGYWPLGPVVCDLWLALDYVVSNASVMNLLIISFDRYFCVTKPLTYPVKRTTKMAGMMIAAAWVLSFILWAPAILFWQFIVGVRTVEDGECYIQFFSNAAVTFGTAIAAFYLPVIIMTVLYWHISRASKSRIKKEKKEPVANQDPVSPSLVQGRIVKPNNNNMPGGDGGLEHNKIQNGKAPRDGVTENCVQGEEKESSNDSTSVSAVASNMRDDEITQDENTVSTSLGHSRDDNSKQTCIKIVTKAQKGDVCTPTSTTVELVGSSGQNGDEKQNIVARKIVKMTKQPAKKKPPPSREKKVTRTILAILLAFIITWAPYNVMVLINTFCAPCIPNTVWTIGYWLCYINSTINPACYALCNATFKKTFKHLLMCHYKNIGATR
Description: Compound was tested for inhibiting [3H]N-Methyl-scopolamine Binding to Muscarinic receptor (M2) in Rat Heart.

Assay [2] deals with Muscarinic acetylcholine receptor M3 (Rattus norvegicus, UniProt P08483). The assay is described as follows: Compound was tested for inhibiting [3H]N-Methyl-scopolamine Binding to Muscarinic receptor (M3) in Rat Submaxillary Gland.
The target of assay [3] is Muscarinic acetylcholine receptor M2 (Cavia porcellus). The assay is described as follows: Evaluation of antagonistic affinity against muscarinic receptor (M2) in guinea pig left atria. Particulars: read-out: pA2 (converted).
The target of assay [4] is T2, Muscarinic acetylcholine receptor M1 (Rattus norvegicus, UniProt P08482).
T2 sequence (P08482 whole entry): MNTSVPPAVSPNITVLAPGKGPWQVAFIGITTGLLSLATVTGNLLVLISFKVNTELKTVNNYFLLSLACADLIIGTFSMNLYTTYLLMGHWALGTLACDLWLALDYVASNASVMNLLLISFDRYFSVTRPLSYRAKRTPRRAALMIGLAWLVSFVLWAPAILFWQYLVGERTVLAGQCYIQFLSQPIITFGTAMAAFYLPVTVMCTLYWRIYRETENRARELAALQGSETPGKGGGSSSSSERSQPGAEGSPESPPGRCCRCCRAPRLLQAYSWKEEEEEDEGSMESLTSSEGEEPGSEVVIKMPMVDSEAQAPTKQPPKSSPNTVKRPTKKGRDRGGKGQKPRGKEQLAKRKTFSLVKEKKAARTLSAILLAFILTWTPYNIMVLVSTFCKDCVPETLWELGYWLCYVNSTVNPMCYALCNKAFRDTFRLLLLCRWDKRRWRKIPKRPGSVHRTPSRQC
Description: Compound was tested for inhibiting [3H]pirenzepine Binding to Muscarinic receptor (M1) receptor in Rat Cortex Homogenates.

Assay [5] addresses Muscarinic acetylcholine receptor M3 (Cavia porcellus, UniProt Q8VH26). Description: Evaluation of antagonistic affinity against muscarinic receptor (M3) in guinea pig ileum. In kind it is functional, tissue-based. The note with it: read-out: pA2 (converted).
The target of assay [6] is T3, Muscarinic acetylcholine receptor M4 (Homo sapiens, UniProt P08173).
T3 sequence (P08173 whole entry): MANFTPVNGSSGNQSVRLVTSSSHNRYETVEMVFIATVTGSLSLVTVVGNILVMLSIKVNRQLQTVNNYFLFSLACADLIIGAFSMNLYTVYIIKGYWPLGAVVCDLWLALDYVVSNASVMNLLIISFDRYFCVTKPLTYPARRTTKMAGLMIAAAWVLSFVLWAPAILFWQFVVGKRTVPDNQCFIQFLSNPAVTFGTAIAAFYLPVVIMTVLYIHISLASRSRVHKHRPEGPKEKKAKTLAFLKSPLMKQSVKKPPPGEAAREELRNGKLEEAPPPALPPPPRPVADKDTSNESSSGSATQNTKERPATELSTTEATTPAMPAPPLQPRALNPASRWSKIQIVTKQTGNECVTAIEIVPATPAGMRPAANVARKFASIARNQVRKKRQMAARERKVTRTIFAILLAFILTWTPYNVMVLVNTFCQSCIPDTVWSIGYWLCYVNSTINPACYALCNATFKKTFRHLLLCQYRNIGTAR
Description: Compound was tested for binding affinity against Muscarinic acetylcholine receptor M4 in NG 108-15 cell homogenates. In kind it is cell-based.

Chain of Muscarinic acetylcholine receptor M3 (Cavia porcellus, UniProt Q8VH26) (Q8VH26 whole entry): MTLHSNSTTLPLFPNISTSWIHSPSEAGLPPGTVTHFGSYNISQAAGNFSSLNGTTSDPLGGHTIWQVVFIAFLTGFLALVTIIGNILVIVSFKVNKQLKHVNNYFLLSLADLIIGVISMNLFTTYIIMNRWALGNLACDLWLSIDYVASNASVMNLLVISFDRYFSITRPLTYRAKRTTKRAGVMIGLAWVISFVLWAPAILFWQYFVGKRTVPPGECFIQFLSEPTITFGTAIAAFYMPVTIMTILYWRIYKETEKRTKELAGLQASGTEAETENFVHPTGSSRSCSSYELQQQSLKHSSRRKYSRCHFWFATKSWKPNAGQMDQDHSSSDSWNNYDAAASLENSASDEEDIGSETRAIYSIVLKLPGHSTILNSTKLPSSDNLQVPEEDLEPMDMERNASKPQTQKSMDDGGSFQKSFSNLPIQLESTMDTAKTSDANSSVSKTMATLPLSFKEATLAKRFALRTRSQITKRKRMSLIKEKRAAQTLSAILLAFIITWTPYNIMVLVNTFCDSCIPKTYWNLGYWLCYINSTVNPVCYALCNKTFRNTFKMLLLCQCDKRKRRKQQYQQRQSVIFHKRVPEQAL
Chain of Muscarinic acetylcholine receptor M3 (Rattus norvegicus, UniProt P08483) (P08483 whole entry): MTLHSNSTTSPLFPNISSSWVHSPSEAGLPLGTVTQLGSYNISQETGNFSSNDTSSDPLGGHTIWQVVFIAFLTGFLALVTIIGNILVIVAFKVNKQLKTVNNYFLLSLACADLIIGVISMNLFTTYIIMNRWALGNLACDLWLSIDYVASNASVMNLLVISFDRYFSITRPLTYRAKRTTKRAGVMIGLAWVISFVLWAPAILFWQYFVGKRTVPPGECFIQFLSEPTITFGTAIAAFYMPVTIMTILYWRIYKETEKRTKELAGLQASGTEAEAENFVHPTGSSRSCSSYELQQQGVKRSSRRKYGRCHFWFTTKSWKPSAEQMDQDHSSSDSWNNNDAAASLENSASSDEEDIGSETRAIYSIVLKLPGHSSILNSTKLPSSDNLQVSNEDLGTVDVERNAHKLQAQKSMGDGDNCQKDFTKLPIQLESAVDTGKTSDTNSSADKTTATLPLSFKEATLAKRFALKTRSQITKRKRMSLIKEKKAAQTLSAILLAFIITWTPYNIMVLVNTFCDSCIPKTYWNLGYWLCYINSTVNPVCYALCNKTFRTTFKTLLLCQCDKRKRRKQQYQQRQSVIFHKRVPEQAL

Take `C[N+]1(C)CCC2(CC1)OC(=O)C(c1ccccc1)(c1ccccc1)O2`: the Ki in assay [1] is 2.75 nM; in assay [2], 2.95 nM; in assay [4], 5.01 nM. In addition, the Kb in assay [3] was 1.23 nM; in assay [5], 0.933 nM.

Consider `C[N+]1(C)C2CCC1CC1(C2)OC(=O)C(c2ccccc2)(c2ccccc2)O1` (stereo in doubt; 4a), for which the results for the inhibition constant Ki in assay [2], in assay [4] and in assay [6] were 10.5 nM, 0.398 nM and 4.68 nM, respectively. The Kb in assay [5] is 3.63 nM.

Consider `C[N+]1(C)C2CCC1CC1(C2)OC(=O)C(c2ccccc2)(c2ccccc2)O1` (stereo in doubt; 4b), for which the Ki in assay [2] was 50.1 nM; in assay [4], 0.794 nM; in assay [6] it was 4.37 nM. Besides, the Kb in assay [5] was 20.9 nM.

Take `C[N+]1(C)CCC(OC(=O)C(c2ccccc2)c2ccccc2)CC1` [4-DAMP]: the Ki in assay [4] is 0.589 nM. This lies in the sub-nanomolar range.

For orientation: Ki means a measure of affinity in units of concentration, obtained from inhibition or displacement. A low value points to higher affinity.
